Laboratory results as given in patent US11267824B2, “Inhibitors of indoleamine 2,3-dioxygenase and/or tryptophan 2,3-dioxygenase” (IDORSIA PHARMACEUTICALS LTD, priority 2017, dated 2022).

Key:
[1] = biological target: Recombinant full-length human IDO1 (Homo sapiens (Human), UniProt P14902); experiment: IDO1 enzymatic assay (IDO inhibitory activity); format: biochemical; conditions: 2 nM enzyme, 5 μM L-tryptophan, pH6.5, 30 min pre-incubation, NFK quantified by LCMS; mean values if measured multiple times; read-out: hIDO activity (IC50 in nM)
Chain of Recombinant full-length human IDO1 (P14902 whole entry): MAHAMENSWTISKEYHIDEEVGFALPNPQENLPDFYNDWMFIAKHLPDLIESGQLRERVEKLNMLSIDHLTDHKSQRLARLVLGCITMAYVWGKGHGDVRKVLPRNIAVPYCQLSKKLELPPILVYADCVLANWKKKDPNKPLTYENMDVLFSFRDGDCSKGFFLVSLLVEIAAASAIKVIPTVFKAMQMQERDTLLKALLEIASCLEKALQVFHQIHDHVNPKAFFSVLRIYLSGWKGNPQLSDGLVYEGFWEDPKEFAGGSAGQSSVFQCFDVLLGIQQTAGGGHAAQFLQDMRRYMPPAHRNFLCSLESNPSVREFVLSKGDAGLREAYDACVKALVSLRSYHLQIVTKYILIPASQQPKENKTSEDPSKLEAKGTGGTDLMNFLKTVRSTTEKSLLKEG
How it was run: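 N-His-tagged enzyme from E. coli at 2 nM in 37.5 mM phosphate pH6.5 with ascorbate, methylene blue, catalase; compounds 10 μM–0.5 nM, 0.6% DMSO, pre-incubated 30 min RT, then 5 μM L-tryptophan for 30 min RT. NFK quantified by LCMS against d5-tryptophan; IC50 from duplicate four-parameter fit, means where repeated.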

[2] = biological target: Recombinant human TDO comprising amino acids 19-407 (Homo sapiens (Human), UniProt P48775); experiment: TDO2 enzymatic assay (TDO inhibitory activity); format: biochemical; conditions: 15 nM enzyme, 200 μM L-tryptophan, pH7, 30 min pre-incubation, NFK quantified by LCMS; mean values if measured multiple times; read-out: hTDO activity (IC50 in nM)
Chain of Recombinant human TDO comprising amino acids 19-407 (P48775 19-406 limits assumed): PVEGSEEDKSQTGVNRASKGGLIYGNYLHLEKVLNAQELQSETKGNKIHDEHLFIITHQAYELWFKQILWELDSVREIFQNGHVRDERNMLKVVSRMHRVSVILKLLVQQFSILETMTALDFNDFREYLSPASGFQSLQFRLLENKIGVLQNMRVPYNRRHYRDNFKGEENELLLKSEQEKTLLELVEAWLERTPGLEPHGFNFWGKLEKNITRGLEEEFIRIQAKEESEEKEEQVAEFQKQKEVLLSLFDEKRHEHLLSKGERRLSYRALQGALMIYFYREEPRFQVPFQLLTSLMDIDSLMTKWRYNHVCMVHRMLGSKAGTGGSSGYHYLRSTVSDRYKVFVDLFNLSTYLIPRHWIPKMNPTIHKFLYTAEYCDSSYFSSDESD
How it was run: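 His-tagged enzyme (15 nM, E. coli-expressed) in pH 7 phosphate buffer with ascorbate, catalase, BSA, Tween 20, 0.6% DMSO; 30 min RT pre-incubation with compound (10 μM–0.5 nM), then 200 μM L-tryptophan for 30 min RT. N′-formylkynurenine quantified by LCMS against deuterated tryptophan; IC50 by four-parameter fit, duplicates.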

SMILES	IC50 [1]	IC50 [2]
O[C@@H](CC1CCCCC1)c1c(Cl)sc2cncn12 [Example 16a, (S)-1-(2-Chloro-imidazo[5,1-b]thiazol-3-yl)-2-cyclohexyl-ethanol]	35.6 nM	658 nM
O[C@@H](CC1CCCC1)c1c(C2CC2)sc2cncn12 [Example 24a, (S)-2-Cyclopentyl-1-(2-cyclopropyl-imidazo[5,1-b]thiazol-3-yl)-ethanol]	20.5 nM	356 nM
CC1CCCC(C(O)c2c(C3CC3)sc3cncn23)C1 (stereo not shown) [Example 27, (2-Cyclopropyl-imidazo[5,1-b]thiazol-3-yl)-(3-methyl-cyclohexyl)-methanol]	17.2 nM	384 nM
CC1CCCC(CC(O)c2c(C3CC3)sc3cncn23)C1 (stereo not shown) [Example 29, 1-(2-Cyclopropyl-imidazo[5,1-b]thiazol-3-yl)-2-(3-methyl-cyclohexyl)-ethanol]	21.4 nM	509 nM
CC1CCC(C(O)c2c(C3CC3)sc3cncn23)C1 (stereo not shown) [Example 30, (2-Cyclopropyl-imidazo[5,1-b]thiazol-3-yl)-(3-methyl-cyclopentyl)-methanol]	12.1 nM	454 nM
CC1CCCCC1CC(O)c1c(C2CC2)sc2cncn12 (stereo not shown) [Example 31, 1-(2-Cyclopropyl-imidazo[5,1-b]thiazol-3-yl)-2-(2-methyl-cyclohexyl)-ethanol]	45.2 nM	411 nM
CC1(C)CCC(CC(O)c2c(C3CC3)sc3cncn23)C1 (stereo not shown) [Example 34, 1-(2-Cyclopropyl-imidazo[5,1-b]thiazol-3-yl)-2-(3,3-dimethyl-cyclopentyl)-ethanol]	39.4 nM	321 nM
OC(CC1CCC(c2ccccc2)C1)c1c(C2CC2)sc2cncn12 (stereo not shown) [Example 35, 1-(2-Cyclopropyl-imidazo[5,1-b]thiazol-3-yl)-2-(3-phenyl-cyclopentyl)-ethanol]	114 nM	1570 nM
OC(CC1CC2C=CC1C2)c1c(C2CC2)sc2cncn12 (stereo not shown) [Example 38, 2-Bicyclo[2.2.1]hept-5-en-2-yl-1-(2-cyclopropyl-imidazo[5,1-b]thiazol-3-yl)-ethanol]	22.6 nM	191 nM
OC(CC1CC2CCC1O2)c1c(C2CC2)sc2cncn12 (stereo not shown) [Example 41, 1-(2-Cyclopropyl-imidazo[5,1-b]thiazol-3-yl)-2-(7-oxa-bicyclo[2.2.1]hept-2-yl)-ethanol]	93.4 nM	2340 nM
CC1(C)CCC(C(O)c2c(C3CC3)sc3cncn23)C1 (stereo not shown) [Example 47, (2-Cyclopropyl-imidazo[5,1-b]thiazol-3-yl)-(3,3-dimethyl-cyclopentyl)-methanol]	18.8 nM	287 nM
CC1CCCC1C(O)c1c(C2CC2)sc2cncn12 (stereo not shown) [Example 48, (2-Cyclopropyl-imidazo[5,1-b]thiazol-3-yl)-(2-methyl-cyclopentyl)-methanol]	8.4 nM	70.6 nM
CC(CC(O)c1c(C2CC2)sc2cncn12)C1CCCCC1 (stereo not shown) [Example 65, 3-Cyclohexyl-1-(2-cyclopropyl-imidazo[5,1-b]thiazol-3-yl)-butan-1-ol]	124 nM	931 nM
CCC(C1CCCCC1)C(O)c1c(C2CC2)sc2cncn12 (stereo not shown) [Example 66, 2-Cyclohexyl-1-(2-cyclopropyl-imidazo[5,1-b]thiazol-3-yl)-butan-1-ol]	1570 nM	> 10200 nM
CC1(C)CCCC(C(O)c2c(C3CC3)sc3cncn23)C1 (stereo not shown) [Example 69, (2-Cyclopropyl-imidazo[5,1-b]thiazol-3-yl)-(3,3-dimethyl-cyclohexyl)-methanol]	40 nM	255 nM
OC(CC1CCCCC1c1ccccc1)c1c(C2CC2)sc2cncn12 (stereo not shown) [Example 75, 1-(2-Cyclopropyl-imidazo[5,1-b]thiazol-3-yl)-2-(2-phenyl-cyclohexyl)-ethanol]	1040 nM	9460 nM
CC1(C)CCCCC1CC(O)c1c(C2CC2)sc2cncn12 (stereo not shown) [Example 76, 1-(2-Cycclopropyl-imidazo[5,1-b]thiazol-3-yl)-2-(2,2-dimethyl-cyclohexyl)-ethanol]	147 nM	295 nM
OC(c1c(C2CC2)sc2cncn12)C1CCC(Cc2ccccc2)C1 (stereo not shown) [Example 77, (3-Benzyl-cyclopentyl)-(2-cyclopropyl-imidazo[5,1-b]thiazol-3-yl)-methanol]	91.2 nM	3900 nM
CC(C)CC1CCC(C(O)c2c(C3CC3)sc3cncn23)C1 (stereo not shown) [Example 78, (2-Cyclopropyl-imidazo[5,1-b]thiazol-3-yl)-(3-isobutyl-cyclopentyl)-methanol]	72.3 nM	2010 nM
COC1CCCC(C(O)c2c(C3CC3)sc3cncn23)C1 (stereo not shown) [Example 79, (2-Cyclopropyl-imidazo[5,1-b]thiazol-3-yl)-(3-methoxy-cyclohexyl)-methanol]	109 nM	1850 nM
OC(c1c(C2CC2)sc2cncn12)C1CCc2ccccc2C1 (stereo not shown) [Example 80, (2-Cyclopropyl-imidazo[5,1-b]thiazol-3-yl)-(1,2,3,4-tetrahydro-naphthalen-2-yl)-methanol]	34.2 nM	1810 nM
CC(C1CCCCC1)C(O)c1c(C2CC2)sc2cncn12 (stereo not shown) [Example 82, 2-Cyclohexyl-1-(2-cyclopropyl-imidazo[5,1-b]thiazol-3-yl)-propan-1-ol]	87.3 nM	822 nM
OC(c1c(C2CC2)sc2cncn12)C1CCCC1c1ccccc1 (stereo not shown) [Example 83, (2-Cyclopropyl-imidazo[5,1-b]thiazol-3-yl)-(2-phenyl-cyclopentyl)-methanol]	296 nM	5200 nM
CC1(C)CCCC1C(O)c1c(C2CC2)sc2cncn12 (stereo not shown) [Example 84, (2-Cyclopropyl-imidazo[5,1-b]thiazol-3-yl)-(2,2-dimethyl-cyclopentyl)-methanol]	74 nM	133 nM
CC1(c2ccccc2)CCC(C(O)c2c(C3CC3)sc3cncn23)C1 (stereo not shown) [Example 88, (2-Cyclopropyl-imidazo[5,1-b]thiazol-3-yl)-(3-methyl-3-phenyl-cyclopentyl)-methanol]	76.7 nM	1280 nM
OC(CC1CCCC2CCCCC21)c1c(C2CC2)sc2cncn12 (stereo not shown) [Example 89, 1-(2-Cyclopropyl-imidazo[5,1-b]thiazol-3-yl)-2-(decahydro-naphthalen-1-yl)-ethanol]	528 nM	2130 nM
OC(c1c(C2CC2)sc2cncn12)C1CCC2CCCCC2C1 (stereo not shown) [Example 90, (2-Cyclopropyl-imidazo[5,1-b]thiazol-3-yl)-(decahydro-naphthalen-2-yl)-methanol]	133 nM	1080 nM
OC(c1c(C2CC2)sc2cncn12)C1CCCC1Cc1ccccc1 (stereo not shown) [Example 91, (2-Benzyl-cyclopentyl)-(2-cyclopropyl-imidazo[5,1-b]thiazol-3-yl)-methanol]	288 nM	1640 nM

More lines, now with the values ahead:

IC50 [1]	IC50 [2]	SMILES
22.2 nM	358 nM	O[C@@H](CC1CCCCCC1)c1c(C2CC2)sc2cncn12 [Example 28a, (S)-2-Cycloheptyl-1-(2-cyclopropyl-imidazo[5,1-b]thiazol-3-yl)-ethanol]
19.5 nM	262 nM	CC1(C)CCC(C[C@H](O)c2c(C3CC3)sc3cncn23)C1 (stereo partly drawn) [Example 34a, (S)-1-(2-Cyclopropyl-imidazo[5,1-b]thiazol-3-yl)-2-(3,3-dimethyl-cyclopentyl)-ethanol]
5.03 nM	246 nM	CC1(C)CC([C@H](O)c2c(C3CC3)sc3cncn23)C1 [Example 36a, (S)-(2-Cyclopropyl-imidazo[5,1-b]thiazol-3-yl)-(3,3-dimethyl-cyclobutyl)-methanol]
15 nM	328 nM	CC1(C)CC[C@@H]([C@H](O)c2c(C3CC3)sc3cncn23)C1 [Example 47a, (S)-(2-Cyclopropyl-imidazo[5,1-b]thiazol-3-yl)-((R)-3,3-dimethyl-cyclopentyl)-methanol]
5.99 nM	190 nM	CC1(C)CC[C@H]([C@H](O)c2c(C3CC3)sc3cncn23)C1 [Example 47b, (S)-(2-Cyclopropyl-imidazo[5,1-b]thiazol-3-yl)-((S)-3,3-dimethyl-cyclopentyl)-methanol]
4.37 nM	42.5 nM	CC1([C@H](O)c2c(C3CC3)sc3cncn23)CCCC1 [Example 48a, (S)-(2-Cyclopropyl-imidazo[5,1-b]thiazol-3-yl)-(1-methyl-cyclopentyl)-methanol]
20 nM	494 nM	O[C@@H](c1ccccc1)c1c(C2CC2)sc2cncn12 [Example 50a, (S)-(2-Cyclopropyl-imidazo[5,1-b]thiazol-3-yl)-phenyl-methanol]
20.9 nM	341 nM	O[C@H](c1c(C(F)(F)F)sc2cncn12)C1CCCCC1 [Example 63a, (S)-Cyclohexyl-(2-trifluoromethyl-imidazo[5,1-b]thiazol-3-yl)-methanol]
4.63 nM	11.6 nM	C=Cc1sc2cncn2c1[C@@H](O)C1CCCCC1 [Example 68a, (S)-Cyclohexyl-(2-vinyl-imidazo[5,1-b]thiazol-3-yl)-methanol]
6.45 nM	2300 nM	O[C@H](c1c(C2CC2)sc2cncn12)[C@H]1CC[C@H](c2ccccc2)CC1 [Example 73a, (S)-(2-Cyclopropyl-imidazo[5,1-b]thiazol-3-yl)-(trans-4-phenyl-cyclohexyl)-methanol]
